Assay results from patent US8906925B2, “Pyrido[4,3-B]indoles containing rigid moieties” (Medivation Technologies, Inc., priority 2008, dated 2014).
Where “and” joins values, the source holds several entries; their conditions need not be identical. Identical values can stand only once. Like-named read-outs stand apart in the source and are kept apart here.

Columns and labels:
[1] = target: T1, human recombinant serotonin (5-Hydroxytryptamine) 5-HT6 receptor (Homo sapiens, UniProt P50406); assay: Serotonin 5-HT6 radioligand binding ([3H]LSD); conditions: for inhibition at 1 µM / Inhibition of ligand binding, Serotonin 5-HT6 (percent inhibition of specific binding): compound at 1 μM; for inhibition at 1 µM / inhibition at 0.1 µM: read-out: Inhibition of ligand binding, Serotonin 5-HT6 (percent inhibition of specific binding); for Inhibition of ligand binding, Serotonin 5-HT6 (percent inhibition of specific binding): 1 µM; for inhibition at 0.1 µM: compound at 0.1 μM
T1 construct: expressed in transfected cells; host or cells: human HeLa cells
T1 sequence (P50406 whole entry): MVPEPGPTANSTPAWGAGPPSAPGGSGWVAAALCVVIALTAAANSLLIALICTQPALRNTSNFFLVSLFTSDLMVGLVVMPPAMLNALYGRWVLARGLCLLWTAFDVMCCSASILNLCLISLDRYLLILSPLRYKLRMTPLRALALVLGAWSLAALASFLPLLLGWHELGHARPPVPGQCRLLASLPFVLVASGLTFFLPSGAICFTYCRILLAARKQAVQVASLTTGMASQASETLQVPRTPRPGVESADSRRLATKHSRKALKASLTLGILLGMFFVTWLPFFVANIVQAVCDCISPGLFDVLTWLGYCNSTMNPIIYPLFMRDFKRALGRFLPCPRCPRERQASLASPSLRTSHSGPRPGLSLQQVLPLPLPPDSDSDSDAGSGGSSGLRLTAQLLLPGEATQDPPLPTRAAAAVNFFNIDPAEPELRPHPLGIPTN
Protocol: Compounds of the invention were incubated with 1.5 nM [3H]Lysergic acid diethylamide (LSD) for 120 min. at 37° C. […] Receptor proteins were filtered and washed, the filters were then counted to determine [3H]LSD specifically bound. Compounds were screened at 1 μM or lower, using 1% DMSO as vehicle. Biochemical assay results are presented as the percent inhibition of specific binding in Table 10.

[2] = target: T2, human recombinant adrenergic α1D receptor (Homo sapiens, UniProt P25100); assay: Adrenergic α1D radioligand binding ([3H]Prozosin); conditions: compound at 1 μM; for Inhibition of ligand binding, Adrenergic α1D: 1 µM
T2 construct: expressed in transfected cells; host or cells: human embryonic kidney (HEK-293) cells
T2 sequence (P25100 1-572): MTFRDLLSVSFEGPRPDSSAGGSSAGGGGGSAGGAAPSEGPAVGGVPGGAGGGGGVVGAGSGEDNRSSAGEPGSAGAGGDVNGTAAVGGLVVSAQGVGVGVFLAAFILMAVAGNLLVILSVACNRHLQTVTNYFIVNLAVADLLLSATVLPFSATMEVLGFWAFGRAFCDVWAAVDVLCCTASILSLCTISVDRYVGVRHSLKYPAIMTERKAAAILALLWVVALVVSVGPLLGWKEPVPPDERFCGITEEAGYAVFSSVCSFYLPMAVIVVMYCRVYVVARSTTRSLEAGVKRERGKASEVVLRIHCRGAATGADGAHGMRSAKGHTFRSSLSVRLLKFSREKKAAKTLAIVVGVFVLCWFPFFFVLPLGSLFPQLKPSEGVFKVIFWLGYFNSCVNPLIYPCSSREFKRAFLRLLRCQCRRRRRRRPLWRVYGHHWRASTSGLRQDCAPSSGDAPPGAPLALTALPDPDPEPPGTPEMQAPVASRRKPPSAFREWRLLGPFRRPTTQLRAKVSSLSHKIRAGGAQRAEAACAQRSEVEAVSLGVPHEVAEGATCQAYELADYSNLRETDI
Protocol: Compounds of invention were incubated with 0.6 nM [^3H]Prozosin for 60 min. at 25° C. Non-specific binding was estimated in the presence of 10 μM phentolamine. Receptor proteins were filtered and washed, the filters were then counted to determine [^3H]Prozosin specifically bound. Compounds were screened at 1 μM or lower, using 1% DMSO as vehicle. Biochemical assay results are presented as the percent inhibition of specific binding in Table 9.

[3] = target: human recombinant serotonin (5-Hydroxytryptamine) 5-HT7 receptor (Homo sapiens, UniProt P34969); assay: Serotonin 5-HT7 radioligand binding ([3H]LSD); conditions: compound at 1 μM; for inhibition at 1 µM: read-out: Inhibition of ligand binding, Serotonin 5-HT7 (percent inhibition of specific binding)
Sequence of human recombinant serotonin (5-Hydroxytryptamine) 5-HT7 receptor (P34969 whole entry): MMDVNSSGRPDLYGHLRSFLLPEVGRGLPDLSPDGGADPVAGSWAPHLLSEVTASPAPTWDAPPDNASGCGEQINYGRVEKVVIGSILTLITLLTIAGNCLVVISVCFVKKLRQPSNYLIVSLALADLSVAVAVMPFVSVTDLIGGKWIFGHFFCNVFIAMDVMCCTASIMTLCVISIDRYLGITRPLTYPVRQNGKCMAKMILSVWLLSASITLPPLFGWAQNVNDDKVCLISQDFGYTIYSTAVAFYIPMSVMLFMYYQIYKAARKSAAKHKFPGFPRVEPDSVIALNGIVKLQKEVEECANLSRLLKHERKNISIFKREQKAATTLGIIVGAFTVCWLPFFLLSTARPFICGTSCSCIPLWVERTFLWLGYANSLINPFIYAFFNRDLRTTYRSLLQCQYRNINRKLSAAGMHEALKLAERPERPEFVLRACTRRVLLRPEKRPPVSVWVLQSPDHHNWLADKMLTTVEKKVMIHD
Text: Receptor proteins were filtered and washed, the filters were then counted to determine [^3H]LSD specifically bound.

[4] = target: T3, human recombinant adrenergic α2A receptor (Homo sapiens, UniProt P08913); assay: Adrenergic α2A radioligand binding ([3H]MK-912); conditions: compound at 1 μM; for Inhibition of ligand binding, Adrenergic α2A: 1 µM
T3 construct: expressed in transfected cells; host or cells: insect Sf9 cells
T3 sequence (P08913 1-465): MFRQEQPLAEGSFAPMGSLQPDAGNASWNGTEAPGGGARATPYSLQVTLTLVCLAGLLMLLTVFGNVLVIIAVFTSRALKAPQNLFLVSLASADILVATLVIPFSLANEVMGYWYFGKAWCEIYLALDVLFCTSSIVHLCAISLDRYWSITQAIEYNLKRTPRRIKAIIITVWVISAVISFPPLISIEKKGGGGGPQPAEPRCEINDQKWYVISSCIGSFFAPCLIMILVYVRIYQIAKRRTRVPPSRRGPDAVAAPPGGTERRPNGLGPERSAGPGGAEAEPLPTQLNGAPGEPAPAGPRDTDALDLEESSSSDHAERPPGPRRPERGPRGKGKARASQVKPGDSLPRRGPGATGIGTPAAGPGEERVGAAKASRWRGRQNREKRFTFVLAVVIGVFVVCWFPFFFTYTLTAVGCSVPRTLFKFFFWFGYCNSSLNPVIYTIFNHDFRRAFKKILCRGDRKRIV
How it was run: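 Sf9-expressed human receptor in 50 mM Tris-HCl pH 7.4, 12.5 mM MgCl2, 2 mM EDTA; compounds at 1 μM or lower (1% DMSO) incubated with 1 nM [3H]MK-912 for 60 min at 25° C. Non-specific binding defined with 10 μM WB-4101; filtered bound radioactivity counted, reported as percent inhibition of specific binding.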

[5] = target: human dopamine D2L receptor (Homo sapiens, UniProt P14416); assay: Dopamine D2L radioligand binding ([3H]Spiperone); conditions: compound at 1 μM; for Inhibition of ligand binding, Dopamine D2L: 1 µM
Sequence of human dopamine D2L receptor (P14416 whole entry): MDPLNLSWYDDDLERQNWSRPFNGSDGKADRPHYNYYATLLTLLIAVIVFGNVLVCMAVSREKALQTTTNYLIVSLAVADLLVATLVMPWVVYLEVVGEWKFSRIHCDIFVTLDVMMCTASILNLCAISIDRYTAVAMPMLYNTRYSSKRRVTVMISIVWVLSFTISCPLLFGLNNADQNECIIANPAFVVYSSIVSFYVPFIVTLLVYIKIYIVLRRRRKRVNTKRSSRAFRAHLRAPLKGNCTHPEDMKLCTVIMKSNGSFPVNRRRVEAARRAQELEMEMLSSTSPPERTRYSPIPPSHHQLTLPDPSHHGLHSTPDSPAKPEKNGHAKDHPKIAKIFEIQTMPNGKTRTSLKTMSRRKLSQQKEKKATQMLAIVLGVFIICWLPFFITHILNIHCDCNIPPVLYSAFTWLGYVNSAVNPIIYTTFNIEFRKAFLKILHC
Text: Non-specific binding was estimated in the presence of […] Haloperidol. Receptor proteins were filtered and washed, the filters were then counted to determine [^3H]Spiperone specifically bound. […] Biochemical assay results are presented as the percent inhibition of specific binding in Table 9.

[6] = read-out: Inhibition of ligand binding, Adrenergic α1D (percent inhibition of specific binding)
[7] = read-out: Inhibition of ligand binding, Adrenergic α2A (percent inhibition of specific binding)
[8] = […] [3H]Spiperone, read-out: Inhibition of ligand binding, Dopamine D2L (percent inhibition of specific binding)
[9] = percent inhibition of specific binding
[10] = percent inhibition of specific binding, read-out: Inhibition of ligand binding, Adrenergic α1D
[11] = percent inhibition of specific binding, read-out: Inhibition of ligand binding, Adrenergic α2A
[12] = percent inhibition of specific binding, read-out: Inhibition of ligand binding, Dopamine D2L

Row | Structure (SMILES) | inhibition at 1 µM [1] [%] | inhibition at 1 µM [2, 6] [%] | inhibition at 1 µM [3] [%] | inhibition at 1 µM [4, 7] [%] | inhibition at 1 µM [5, 8] [%] | Inhibition of ligand binding, Dopamine D2L (percent inhibition of specific binding) ([5]; […] [3H]Spiperone) [%] | Inhibition of ligand binding, Serotonin 5-HT6 (percent inhibition of specific binding) [1] [%] | Inhibition of ligand binding, Adrenergic α1D [2, 9] [%] | Inhibition of ligand binding, Serotonin 5-HT7 (percent inhibition of specific binding) ([3]; 1 µM) [%] | Inhibition of ligand binding, Adrenergic α2A [4, 9] [%] | Inhibition of ligand binding, Dopamine D2L [5, 9] | inhibition at 0.1 µM [1] [%] | inhibition at 1 µM [2, 10] [%] | inhibition at 1 µM [4, 11] [%] | inhibition at 1 µM [5, 12] [%] | Inhibition of ligand binding, Serotonin 5-HT7 (percent inhibition of specific binding) [3]
1 | CN1CCc2c(c3cc(Cl)ccc3n2C#Cc2ccc(Cl)cc2)C1 [Compound No. 480, 8-chloro-5-((4-chlorophenyl)ethynyl)-2-methyl-2,3,4,5-tetrahydro-1H-pyrido[4,3-b]indole] | 67 | 68 | 84 | 94 | 18 |  |  |  |  |  |  |  |  |  |  | 
2 | CCC/C=C(/Cn1c2c(c3cc(Cl)ccc31)CN(C)CC2)c1ccc(F)cc1 [Compound No. 351, (E)-8-chloro-5-(2-(4-fluorophenyl)hex-2-enyl)-2-methyl-2,3,4,5-tetrahydro-1H-pyrido[4,3-b]indole] | 103 | 45 | 90 | 84 | 70 | 80 |  |  |  |  |  |  |  |  |  | 
3 | C/C(=C\n1c2c(c3cc(Cl)ccc31)CN(C)CC2)c1ccc(Cl)cc1Cl [Compound 210, (E)-8-chloro-5-(2-(2,4-dichlorophenyl)prop-1-enyl)-2-methyl-2,3,4,5-tetrahydro-1H-pyrido[4,3-b]indole] |  |  |  |  |  |  | 76 | 17 | 65 | 79 | 52% |  |  |  |  | 
4 | CN1CCc2c(c3cc(C(=O)O)ccc3n2C#Cc2ccc(F)cc2)C1 [Compound No. 482, 5-((4-fluorophenyl)ethynyl)-2-methyl-2,3,4,5-tetrahydro-1H-pyrido[4,3-b]indole-8-carboxylic acid] | 4 | 21 | 22 | 8 | -2 |  |  |  |  |  |  |  |  |  |  | 
5 | CC(=Cn1c2c(c3cc(Cl)ccc31)CN(C)CC2)c1ccc(Cl)cc1Cl (stereo in doubt) [Compound 111, (Z)-8-chloro-5-(2-(2,4-dichlorophenyl)prop-1-enyl)-2,3,4,5-tetrahydro-2-methyl-1H-pyrido[4,3-b]indole] | 94 |  |  |  |  |  |  | 47 | 102 | 101 | 27% and 29% | 71 |  |  |  | 
6 | CCCCC(O)(Cn1c2c(c3cc(Cl)ccc31)CN(C)CC2)c1ccc(F)cc1 (stereo not shown) [Compound 178, 1-(8-chloro-2-methyl-3,4-dihydro-1H-pyrido[4,3-b]indol-5(2H)-yl)-2-(4-fluorophenyl)hexan-2-ol] | 95 |  | 48 |  |  |  |  |  |  |  |  |  | 46 | 88 | 30 | 
7 | CNC(=O)C/C(=C\n1c2c(c3cc(C)ccc31)CN(C)CC2)c1ccc(F)cc1 [Compound 207, (E)-4-(2,8-dimethyl-3,4-dihydro-1H-pyrido[4,3-b]indol-5(2H)-yl)-3-(4-fluorophenyl)-N-methylbut-3-enamide] | 58 |  | 92 |  |  |  |  |  |  |  |  |  | 100 | 86 | 12 | 
8 | CCOC(=O)/C=C(/Cn1c2c(c3cc(C)ccc31)CN(C)CC2)c1ccccc1 [Compound No. 347, (E)-ethyl 4-(2,8-dimethyl-3,4-dihydro-1H-pyrido[4,3-b]indol-5(2H)-yl)-3-phenylbut-2-enoate] | 101 |  | 101 |  |  |  |  |  |  |  | 30% |  | 90 | 96 | 27 | 
9 | CCC(O)(Cn1c2c(c3cc(Cl)ccc31)CN(C)CC2)c1ccc(F)cc1 (stereo not shown) [Compound 78, 1-(8-chloro-1,2,3,4-tetrahydro-2-methylpyrido[4,3-b]indol-5-yl)-2-(4-fluorophenyl)butan-2-ol] | 101 |  | 97 |  |  |  |  |  |  |  | 33% | 78 | 49 | 91 | 27 | 
10 | CCC(O)(Cn1c2c(c3cc(C)ccc31)CN(C)CC2)c1ccc(F)cc1 (stereo not shown) [Compound 175, 1-(2,8-dimethyl-3,4-dihydro-1H-pyrido[4,3-b]indol-5(2H)-yl)-2-(4-fluorophenyl)butan-2-ol] | 100 |  | 79 |  |  |  |  |  |  |  |  |  | 75 | 94 | 24 | 
11 | CN1CCc2c(c3cc(Cl)ccc3n2C/C(=C\CCO)c2ccc(F)cc2)C1 [Compound No. 348, (Z)-5-(8-chloro-2-methyl-3,4-dihydro-1H-pyrido[4,3-b]indol-5(2H)-yl)-4-(4-fluorophenyl)pent-3-en-1-ol] | 94 |  | 93 |  |  |  | 98 |  |  |  | 29% |  | 35 | 92 | 18 | 93/93%
12 | Cc1ccc2c(c1)c1c(n2C/C(=C/C(=O)O)c2ccc(F)cc2)CCN(C)C1 [Compound No. 352, (E)-4-(2,8-dimethyl-3,4-dihydro-1H-pyrido[4,3-b]indol-5(2H)-yl)-3-(4-fluorophenyl)but-2-enoic acid] | 32 | 11 | 52 | 34 | 0 |  |  |  |  |  |  |  |  |  |  | 
13 | C/C(=C\n1c2c(c3cc(C)ccc31)CN(C)CC2)c1ccc(F)cc1 [Compound 87, (E)-5-(2-(4-fluorophenyl)prop-1-enyl)-2,3,4,5-tetrahydro-2,8-dimethyl-1H-pyrido[4,3-b]indole] | 101 |  | 100 |  |  |  |  |  |  |  |  | 97 | 99 | 95 | 97 | 
14 | C/C=C/C(=C\n1c2c(c3cc(Cl)ccc31)CN(C)CC2)c1ccc(F)cc1 [Compound 204, 8-chloro-5-((1E,3E)-2-(4-fluorophenyl)penta-1,3-dienyl)-2-methyl-2,3,4,5-tetrahydro-1H-pyrido[4,3-b]indole] | 102 |  | 93 |  |  |  |  |  |  |  |  |  | 67 | 99 | 87 | 
